Non-standard residues stand in square brackets, D forms with d. Residues, ends and D or L forms follow the SMILES beside them. *: point of attachment. X1 = O=C([C@H](Cc1ccc(OS(=O)(=O)O)cc1)NS(=O)(=O)O)*; sY = N[C@@H](Cc1ccc(OS(=O)(=O)O)cc1)C(=O)O
Key:
Type in all cases: functional
Plasma [1] = test: Anticoagulant activity in human plasma assessed as activated partial thromboplastin time at 1 mg/ml after 15 mins
Plasma [2] = test: Anticoagulant activity in human plasma assessed as activated partial thromboplastin time at 0.03 mg/ml after 15 mins
Plasma [3] = test: Anticoagulant activity in human plasma assessed as activated partial thromboplastin time at 0.1 mg/ml after 15 mins
Plasma [4] = test: Anticoagulant activity in human plasma assessed as activated partial thromboplastin time at 0.01 mg/ml after 15 mins
Plasma [5] = test: Anticoagulant activity in human plasma assessed as activated partial thromboplastin time at 0.3 mg/ml after 15 mins

Q: Which APTT (Plasma [1]) does the source give for O=C(O)[C@H](Cc1ccc(OS(=O)(=O)[O-])cc1)NC(=O)[C@H](Cc1ccc(OS(=O)(=O)[O-])cc1)NC(=O)[C@H](Cc1ccc(OS(=O)(=O)[O-])cc1)NC(=O)[C@H](Cc1ccc(OS(=O)(=O)[O-])cc1)NC(=O)[C@H](Cc1ccc(OS(=O)(=O)[O-])cc1)NC(=O)[C@H](Cc1ccc(OS(=O)(=O)[O-])cc1)NC(=O)[C@H](Cc1ccc(OS(=O)(=O)[O-])cc1)NC(=O)[C@H](Cc1ccc(OS(=O)(=O)[O-])cc1)NC(=O)[C@H](Cc1ccc(OS(=O)(=O)[O-])cc1)NS(=O)(=O)[O-].[Na+].[Na+].[Na+].[Na+].[Na+].[Na+].[Na+].[Na+].[Na+].[Na+] (X1-[sY][sY][sY][sY][sY][sY][sY][sY]-OH) here?
A: 95.8 s

Q: What about the APTT (Plasma [2]) of the same molecule?
A: 33.1 s

Q: What about the APTT (Plasma [3]) of the same molecule?
A: 36.5 s

Q: What about the APTT (Plasma [4]) of the same molecule?
A: 31.9 s

Q: And the APTT (Plasma [5])?
A: 45.7 s

Q: What does the source list for N[C@@H](Cc1ccc(OS(=O)(=O)[O-])cc1)C(=O)N[C@@H](Cc1ccc(OS(=O)(=O)[O-])cc1)C(=O)N[C@@H](Cc1ccc(OS(=O)(=O)[O-])cc1)C(=O)N[C@@H](Cc1ccc(OS(=O)(=O)[O-])cc1)C(=O)N[C@@H](Cc1ccc(OS(=O)(=O)[O-])cc1)C(=O)N[C@@H](Cc1ccc(OS(=O)(=O)[O-])cc1)C(=O)N[C@@H](Cc1ccc(OS(=O)(=O)[O-])cc1)C(=O)N[C@@H](Cc1ccc(OS(=O)(=O)[O-])cc1)C(=O)N[C@@H](Cc1ccc(OS(=O)(=O)[O-])cc1)C(=O)N[C@@H](Cc1ccc(OS(=O)(=O)[O-])cc1)C(=O)O.[Na+].[Na+].[Na+].[Na+].[Na+].[Na+].[Na+].[Na+].[Na+].[Na+] (H-[sY][sY][sY][sY][sY][sY][sY][sY][sY][sY]-OH)?
A: APTT (Plasma [1]): 153.7 s; APTT (Plasma [2]): 32.1 s; APTT (Plasma [3]): 41 s; APTT (Plasma [4]): 30.6 s; APTT (Plasma [5]): 90.5 s

Q: Which APTT (Plasma [1]) does the source give for N[C@@H](Cc1ccc(OS(=O)(=O)[O-])cc1)C(=O)N[C@@H](Cc1ccc(OS(=O)(=O)[O-])cc1)C(=O)N[C@@H](Cc1ccc(OS(=O)(=O)[O-])cc1)C(=O)N[C@@H](Cc1ccc(OS(=O)(=O)[O-])cc1)C(=O)N[C@@H](Cc1ccc(OS(=O)(=O)[O-])cc1)C(=O)N[C@@H](Cc1ccc(OS(=O)(=O)[O-])cc1)C(=O)N[C@@H](Cc1ccc(OS(=O)(=O)[O-])cc1)C(=O)O.[Na+].[Na+].[Na+].[Na+].[Na+].[Na+].[Na+] (H-[sY][sY][sY][sY][sY][sY][sY]-OH) here?
A: 40.6 s

Q: What about the APTT (Plasma [2]) of the same molecule?
A: 30.5 s

Q: And the APTT (Plasma [3])?
A: 31 s

Q: And the APTT (Plasma [4])?
A: 30.4 s

Q: What about the APTT (Plasma [5]) of the same molecule?
A: 32.4 s

Q: What does the source list for O=C(O)[C@H](Cc1ccc(OS(=O)(=O)[O-])cc1)NC(=O)[C@H](Cc1ccc(OS(=O)(=O)[O-])cc1)NC(=O)[C@H](Cc1ccc(OS(=O)(=O)[O-])cc1)NC(=O)[C@H](Cc1ccc(OS(=O)(=O)[O-])cc1)NC(=O)[C@H](Cc1ccc(OS(=O)(=O)[O-])cc1)NC(=O)[C@H](Cc1ccc(OS(=O)(=O)[O-])cc1)NS(=O)(=O)[O-].[Na+].[Na+].[Na+].[Na+].[Na+].[Na+].[Na+] (X1-[sY][sY][sY][sY][sY]-OH)?
A: APTT (Plasma [1]): 64.8 s; APTT (Plasma [2]): 31.2 s; APTT (Plasma [3]): 32.3 s; APTT (Plasma [4]): 30.8 s; APTT (Plasma [5]): 35.7 s

Q: For O=C([O-])[C@H](Cc1ccc(OS(=O)(=O)[O-])cc1)NC(=O)[C@H](Cc1ccc(OS(=O)(=O)[O-])cc1)NC(=O)[C@H](Cc1ccc(OS(=O)(=O)[O-])cc1)NC(=O)[C@H](Cc1ccc(OS(=O)(=O)[O-])cc1)NC(=O)[C@H](Cc1ccc(OS(=O)(=O)[O-])cc1)NC(=O)[C@H](Cc1ccc(OS(=O)(=O)[O-])cc1)NC(=O)[C@H](Cc1ccc(OS(=O)(=O)[O-])cc1)NC(=O)[C@H](Cc1ccc(OS(=O)(=O)[O-])cc1)NC(=O)[C@H](Cc1ccc(OS(=O)(=O)[O-])cc1)NC(=O)[C@H](Cc1ccc(OS(=O)(=O)[O-])cc1)NC(=O)[C@H](Cc1ccc(OS(=O)(=O)[O-])cc1)NC(=O)[C@H](Cc1ccc(OS(=O)(=O)[O-])cc1)NS(=O)(=O)[O-].[Na+].[Na+].[Na+].[Na+].[Na+].[Na+].[Na+].[Na+].[Na+].[Na+].[Na+].[Na+].[Na+].[Na+] (X1-[sY][sY][sY][sY][sY][sY][sY][sY][sY][sY][sY]-OH), which APTT (Plasma [1]) is on record?
A: 172.1 s

Q: And the APTT (Plasma [2])?
A: 37.6 s

Q: What about the APTT (Plasma [3]) of the same molecule?
A: 50.3 s

Q: And the APTT (Plasma [4])?
A: 32 s

Q: What about the APTT (Plasma [5]) of the same molecule?
A: 75.7 s

Reference: ChEMBL document CHEMBL1143892, “Oligo(tyrosine sulfate)s as heparin pentasaccharide mimic: evaluation by surface noncovalent affinity mass spectrometry” (2008)
